Experimental findings from patent publication US10189854B2, “Substituted pyrimidine compounds” (Grünenthal GmbH, priority 2014, dated 2019) are described below.

SMILES strings stand for the structures. A value given as a limit tells only on which side of the number the result lay.

Sequence of human PDE4B1 (Q07343 whole entry): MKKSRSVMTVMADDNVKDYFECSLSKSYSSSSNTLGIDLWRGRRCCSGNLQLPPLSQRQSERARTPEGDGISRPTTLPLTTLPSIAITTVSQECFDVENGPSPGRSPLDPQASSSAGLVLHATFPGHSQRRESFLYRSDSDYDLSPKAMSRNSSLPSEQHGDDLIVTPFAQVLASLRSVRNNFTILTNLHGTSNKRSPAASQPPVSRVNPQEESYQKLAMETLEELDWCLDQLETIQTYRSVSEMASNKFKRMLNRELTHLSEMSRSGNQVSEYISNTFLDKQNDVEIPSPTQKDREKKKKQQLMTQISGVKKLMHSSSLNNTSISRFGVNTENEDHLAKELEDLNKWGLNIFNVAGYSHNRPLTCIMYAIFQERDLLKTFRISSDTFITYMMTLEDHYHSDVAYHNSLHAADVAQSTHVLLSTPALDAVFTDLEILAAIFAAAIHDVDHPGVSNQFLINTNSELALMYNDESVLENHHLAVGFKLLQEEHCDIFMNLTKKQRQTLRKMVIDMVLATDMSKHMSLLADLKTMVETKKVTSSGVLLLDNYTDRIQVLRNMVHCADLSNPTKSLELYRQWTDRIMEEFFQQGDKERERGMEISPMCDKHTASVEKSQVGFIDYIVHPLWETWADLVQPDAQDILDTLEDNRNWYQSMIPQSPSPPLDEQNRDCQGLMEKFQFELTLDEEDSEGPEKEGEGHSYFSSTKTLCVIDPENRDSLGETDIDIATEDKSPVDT

This test concerns the target human PDE4B1 (Homo sapiens (Human), UniProt Q07343). The test can be described thus: TR-FRET assay using the LANCE Ultra cAMP kit to determine the activity of hPDE4B1. The class given is biochemical. The conditions noted are these: IC50 inhibition of PDE4B, mean. The source says:
TR-FRET Assay Using the LANCE® Ultra cAMP Kit to Determine the Activity of hPDE4B1
The effects of the compounds on the activity of the human PDE4B1 was quantified by measuring the production of 5′AMP from cAMP using a human recombinant enzyme expressed in Sf9 cells and the LANCE® Ultra cAMP kit, a TR-FRET detection method from PerkinElmer. The human PDE4B1 enzyme was purchased from SignalChem Lifesciences (Catalog# P92-31BG, Lot# H296-2).
The test compound, reference compound or water (control) was mixed with the enzyme (0.96 U) in a reaction buffer containing 50 mM Tris-HCl, 50 mM MgCl2 and 5 mM DTT (pH 8.5). Thereafter, the reaction was initiated by addition of 500 nM cAMP (substrate) and the mixture was incubated for 30 minutes at room temperature. For control basal measurements, the enzyme was omitted from the reaction mixture. After 30 minutes, the reaction was stopped and diluted by a factor of 100 with the reaction buffer supplemented with 500 μM IBMX. The fluorescence donor (europium chelate-labeled cAMP) and the fluorescence acceptor (anti-cAMP antibody labeled with the ULight™ dye) were then added together with 500 μM IBMX to a 10 μl aliquot. After 60 minutes, the fluorescence transfer corresponding to the amount of residual cAMP was measured at λex=337 nm, λem=620 nm and λem=665 nm using a microplate reader (PHERAstar, BMG). The enzyme activity was determined by dividing the signal measured at 665 nm by that measured at 620 nm (ratio) multiplied by 10000. The results were expressed as percent inhibition of the control enzyme activity. IC50 values (IC50=concentration causing a half-maximal inhibition of control specific activity) were derived from dose response measurements with ten different concentrations (n=3; N=1-3).
Several compounds according to the invention are tested with above mentioned assay.
On the technique in general: In TR-FRET formats the signal depends on donor and acceptor labels being close together.
As usually defined, the IC50 is the concentration that inhibits the measured activity by half. The low end stands for higher potency, the high end for lower potency. Compound `CN(CCO)C(=O)c1ccc2c(c1)N(c1ncc(-c3ccc4c(c3)OCO4)cn1)CC21CC1` [Compound 219, 1-[5-(1,3-Benzodioxol-5-yl)-pyrimidin-2-yl]-N-(2-hydroxy-ethyl)-N-methyl-spiro[1,2-dihydro-indole-3,1′-cyclopropane]-6-carboxylic acid amide] displayed an IC50 of less than 0.1 µM. As for `O=C(c1ccc2c(c1)N(c1ncc(-c3ccccc3F)cn1)CC21CC1)N1C[C@H]2C[C@@H]1CN2` [Compound 220, [(1R,4R)-2,5-Diazabicyclo[2.2.1]heptan-2-yl]-[1-[5-(2-fluorophenyl)-pyrimidin-2-yl]spiro[1,2-dihydro-indole-3,1′-cyclopropane]-6-yl]-methanone], the figure is 0.1 to 1 µM. As for `O=C(c1ccc2c(c1)N(c1ncc(-c3ccccc3F)cn1)CC21CC1)N1C[C@@H]2C[C@H]1CN2` [Compound 221, [(1S,4S)-2,5-Diazabicyclo[2.2.1]heptan-2-yl]-[1-[5-(2-fluorophenyl)-pyrimidin-2-yl]-spiro[1,2-dihydro-indole-3,1′-cyclopropane]-6-yl]-methanone], the figure is less than 0.1 µM; as for `Cc1ccnc(-c2cnc(N3CC4(CC4)c4ccc(C(=O)N5CCNC(=O)C5)cc43)nc2)c1` [Compound 222, 4-[1-[5-(4-Methyl-pyridin-2-yl)-pyrimidin-2-yl]-spiro[1,2-dihydro-indole-3,1′-cyclopropane]-6-carbonyl]-piperazin-2-one], less than 0.1 µM. As for `O=C(c1ccc2c(c1)N(c1ncc(-c3cccc(F)c3)cn1)CC21CC1)N1CC2CC1CN2` (stereo not shown) [Compound 223, (2,5-Diazabicyclo[2.2.1]heptan-2-l)-[1-[5-(3-fluorophenyl)-pyrimidin-2-yl]-spiro[1,2-dihydro-indole-3,1′-cyclopropane]-6-yl]-methanone], the figure is less than 0.1 µM; as for `COc1ccnc(-c2cnc(N3CC4(CC4)c4ccc(C(=O)N(C)CCO)cc43)nc2)c1` [Compound 224, N-(2-hydroxyethyl)-1′-(5-(4-methoxypyridin-2-yl)pyrimidin-2-yl)-N-methylspiro[cyclopropane-1,3′-indoline]-6′-carboxamide], less than 0.1 µM. `CN(CCO)C(=O)c1ccc2c(c1)N(c1ncc(-c3cccc(F)c3F)cn1)CC21CC1` [Compound 225, 1-[5-(2,3-Difluoro-phenyl)-pyrimidin-2-yl]-N-(2-hydroxy-ethyl)-N-methyl-spiro[1,2-dihydro-indole-3,1′-cyclopropane]-6-carboxylic acid amide] displayed an IC50 of less than 0.1 µM. The same measure for `O=C(c1ccc2c(c1)N(c1ncc(-c3ccccc3F)cn1)CC21CC1)N1CCC2(CCCN2)C1` (stereo not shown) [Compound 226, (1,-Diazaspiro[4.4]nonan-7-yl)-[1-[5-(2-fluorophenyl)-pyrimidin-2-yl]-spiro[1,2-dihydro-indole-3,1′-cyclopropane]-6-yl]-methanone]: 0.1 to 1 µM. The same measure for `Cc1ccc(F)c(-c2cnc(N3CC4(CC4)c4ccc(C(=O)N(C)CCO)cc43)nc2)c1` [Compound 227, 1-[5-(2-Fluoro-5-methyl-phenyl)-pyrimidin-2-yl]-N-(2-hydroxy-ethyl)-N-methyl-spiro[1,2-dihydro-indole-3,1′-cyclopropane]-6-carboxylic acid amide]: less than 0.1 µM; for `CN(CCO)C(=O)c1ccc2c(c1)N(c1ncc(-c3cc(N)ccc3F)cn1)CC21CC1` [Compound 228, 1-[5-(5-Amino-2-fluoro-phenyl)-pyrimidin-2-yl]-N-(2-hydroxy-ethyl)-N-methyl-spiro[1,2-dihydro-indole-3,1′-cyclopropane]-6-carboxylic acid amide]: less than 0.1 µM. The same measure for `CN(CCO)C(=O)c1ccc2c(c1)N(c1ncc(-c3ccccn3)cn1)CC21CC1` [Compound 229, N-(2-Hydroxy-ethyl)-N-methyl-1-(5-pyridin-2-yl-pyrimidin-2-yl)-spiro[1,2-dihydro-indole-3,1′-cyclopropane]-6-carboxylic acid amide]: less than 0.1 µM; for `CN(CCO)C(=O)c1ccc2c(c1)N(c1ncc(-c3cccc(F)n3)cn1)CC21CC1` [Compound 230, 1-[5-(6-Fluoro-pyridin-2-yl)-pyrimidin-2-yl]-N-(2-hydroxy-ethyl)-N-methyl-spiro[1,2-dihydro-indole-3,1′-cyclopropane]-6-carboxylic acid amide]: less than 0.1 µM. Take `CN(CCO)C(=O)c1ccc2c(c1)N(c1ncc(-c3ccnc(F)c3)cn1)CC21CC1` [Compound 231, 1-[5-(2-Fluoro-pyridin-4-yl)-pyrimidin-2-yl]-N-(2-hydroxy-ethyl)-N-methyl-spiro[1,2-dihydro-indole-3,1′-cyclopropane]-6-carboxylic acid amide]: the IC50 is less than 0.1 µM.

`CN(CCO)C(=O)c1ccc2c(c1)N(c1ncc(-c3ccc(F)cn3)cn1)CC21CC1` [Compound 232, 1-[5-(5-Fluoro-pyridin-2-yl)-pyrimidin-2-yl]-N-(2-hydroxy-ethyl)-N-methyl-spiro[1,2-dihydro-indole-3,1′-cyclopropane]-6-carboxylic acid amide] had an IC50 of less than 0.1 µM. The same measure for `CN(CCO)C(=O)c1ccc2c(c1)N(c1ncc(-c3cc(F)ccn3)cn1)CC21CC1` [Compound 233, 1-[5-(4-Fluoro-pyridin-2-yl)-pyrimidin-2-yl]-N-(2-hydroxy-ethyl)-N-methyl-spiro[1,2-dihydro-indole-3,1′-cyclopropane]-6-carboxylic acid amide]: less than 0.1 µM. `Cc1cccc(-c2cnc(N3CC4(CC4)c4ccc(C(=O)N(C)CCO)cc43)nc2)n1` [Compound 234, N-(4-Hydroxy-ethyl)-N-methyl-1-[5-(6-methyl-pyridin-2-yl)-pyrimidin-2-yl]-spiro[1,2-dihydro-indole-3,1′-cyclopropane]-6-carboxylic acid amide] registered an IC50 of less than 0.1 µM. The same measure for `COCCN1CCN(C(=O)c2ccc3c(c2)N(c2ncc(-c4ccccc4F)cn2)CC32CC2)CC1` [Compound 235, [1-[5-(2-Fluorophenyl)-pyrimidin-2-yl]-spiro[1,2-dihydro-indole-3,1′-cylcopropane]-6-yl]-[4-(2-methoxy-ethyl)-piperazin-1-yl]-methanone]: 0.1 to 1 µM; for `NC(=O)CN1CCN(C(=O)c2ccc3c(c2)N(c2ncc(-c4ccccc4F)cn2)CC32CC2)CC1` [Compound 236, 2-[4-[1-[5-(2-Fluorophenyl)-pyrimidin-2-yl]-spiro[1,2-dihydro-indole-3,1′-cyclopropane]-6-carbonyl]-piperazin-1-yl]-acetamide]: 0.1 to 1 µM. The same measure for `O=C(O)CN1CCN(C(=O)c2ccc3c(c2)N(c2ncc(-c4ccccc4F)cn2)CC32CC2)CC1` [Compound 237, 2-[4-[1-[5-(2-Fluorophenyl)-pyrimidin-2-yl]-spiro[1,2-dihydro-indole-3,1′-cyclopropane]-6-carbonyl]-pieprazin-1-yl]-acetic acid]: 0.1 to 1 µM. Compound `O=C(O)C1CCCN(C(=O)c2ccc3c(c2)N(c2ncc(-c4ccccc4F)cn2)CC32CC2)C1` (stereo not shown) [Compound 238, 1-[1-[5-(2-Fluorophenyl)-pyrimidin-2-yl]-spiro[1,2-dihydro-indole-3,1′-cyclopropane]-6-carbonyl]-piperidine-3-carboxylic acid] returned an IC50 of less than 0.1 µM. Regarding `C[C@@H](O)CN1CCN(C(=O)c2ccc3c(c2)N(c2ncc(-c4ccccc4F)cn2)CC32CC2)CC1` [Compound 239, [1-[5-(2-Fluorophenyl)-pyrimidin-2-yl]-spiro[1,2-dihydro-indole-3,1′-cyclopropane]-6-yl]-[4-[(2R)-2-hydroxy-propyl]-piperazin-1-yl]-methanone], the IC50 was less than 0.1 µM. As for `C[C@H](O)CN1CCN(C(=O)c2ccc3c(c2)N(c2ncc(-c4ccccc4F)cn2)CC32CC2)CC1` [Compound 240, [1-[5-(2-Fluorophenyl)-pyrimidin-2-yl]-spiro[1,2-dihydro-indole-3,1′-cyclopropane]-6-yl]-[4-[(2S)-2-hydroxy-propyl]-piperazin-1-yl]-methanone], the figure is 0.1 to 1 µM.

Consider `CCc1ccnc(-c2cnc(N3CC4(CC4)c4ccc(C(=O)N(C)CCO)cc43)nc2)c1` [Compound 241, 1-[5-(4-Ethyl-pyridin-2-yl)-pyrimidin-2-yl]-N-(2-hydroxy-ethyl)-N-methyl-spiro[1,2-dihydro-indole-3,1′-cyclopropane]-6-carboxylic acid amide], for which the IC50 was less than 0.1 µM. The same measure for `CC(C)c1ccnc(-c2cnc(N3CC4(CC4)c4ccc(C(=O)N(C)CCO)cc43)nc2)c1` [Compound 242, N-(2-Hydroxy-ethyl)-1-[5-(4-isopropyl-pyridin-2-yl)-pyrimidin-2-yl]-N-methyl-spiro[1,2-dihydro-indole-3,1′-cyclopropane]-6-carboxylic acid amide]: less than 0.1 µM; for `CCc1ccnc(-c2cnc(N3CC4(CC4)c4ccc(C(=O)N5CCNC(=O)C5)cc43)nc2)c1` [Compound 243, 4-[1-[5-(4-Ethyl-pyridin-2-yl)-pyrimidin-2-yl]-spiro[1,2-dihydro-indole-3,1′-cyclopropane]-6-carbonyl]-piperazin-2-one]: less than 0.1 µM.
